Consider 1 molecule from US20240197635A1, “DISSOCIATING POLYMER MATRIX COMPOSITIONS OF FULVESTRANT AND METHODS OF THEIR MAKING AND USE” (VeraMorph LLC, priority 2021, published 2024).

A short description of the series: In vitro dissolution of fulvestrant-loaded DPODs in simulated gastric fluid. The settings on record: aqueous dissolution media.

Method: The exact time of release can vary from 5 minutes to 120 minutes, with the capability to dissolve in less than 60 minutes and in less than 30 minutes and in less than 20 minutes depending on the exact pH. These parameters can be controlled by modifying the extent of drug loading and the composition of the DPOD.

As for `C[C@]12CC[C@@H]3c4ccc(O)cc4C[C@@H](CCCCCCCCC[S+]([O-])CCCC(F)(F)C(F)(F)F)[C@H]3[C@@H]1CC[C@@H]2O` (stereo partly drawn) [fulvestrant, 7α-[9-[(4,4,5,5,5-Pentafluoropentyl)-sulfinyl]nonyl]estra-1,3,5(10)-triene-3,17β-diol], the “saturation concentration of fulvestrant” value was 2 µg/mL.
